pKi: −log10 of the molar value. Structures can show the parent of a compound that is named as a salt. Where two headings read alike, the source gives them in different places.
How the values were obtained:
mu opioid receptor = test: opioid receptor binding, mu ([3H]naloxone); design: species or system guinea pig (method, b1124); rat (Table 4 title)
[1] = phenylquinone writhing test (PQW), analgesic activity in mice; format: in vivo, male white mice (CFl); settings: for ED50: Mus musculus
kappa opioid receptor = target: T1, kappa opioid receptor (Cavia porcellus, UniProt P41144); test: opioid receptor binding, kappa ((-)-[3H]ethylketocycloazocine); design: species or system guinea pig (method, b1124); rat (Table 4 title)
T1 construct: Whole brains were homogenized (20 sec) in 10 vol (wt/vol) of ice-cold 0.34 M sucrose; tissue Charles River (animals); host or cells: guinea pig whole-brain membranes
T1 sequence (P41144 whole entry): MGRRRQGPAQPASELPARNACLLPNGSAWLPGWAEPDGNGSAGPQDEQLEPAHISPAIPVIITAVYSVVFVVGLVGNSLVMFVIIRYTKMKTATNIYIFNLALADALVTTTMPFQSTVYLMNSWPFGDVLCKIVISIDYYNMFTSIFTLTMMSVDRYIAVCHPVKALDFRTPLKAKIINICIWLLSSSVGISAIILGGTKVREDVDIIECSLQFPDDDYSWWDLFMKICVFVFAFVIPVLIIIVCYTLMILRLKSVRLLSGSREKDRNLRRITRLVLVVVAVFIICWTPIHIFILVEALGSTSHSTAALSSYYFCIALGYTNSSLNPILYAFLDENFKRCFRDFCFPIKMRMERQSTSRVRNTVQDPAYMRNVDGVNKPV

[2] = mouse, in vivo; cited from earlier work
[3] = 0.5 nM [3H]naloxone, brain membranes, apparent Ki

Compound	ED50 ([1]; po) [mg/kg]	pKi (mu opioid receptor; [3])	ED50 ([1]; sc) [mg/kg]	pKi (mu opioid receptor)	other results
CN1CCCCC1C(c1ccccc1)N(C)C(=O)Cc1ccc(Cl)c(Cl)c1 (stereo not shown) [Example 2, benzeneacetamide, 3,4-dichloro-N-methyl-N-[1-(1-methyl-2-piperidinyl)phenyl-methyl], hydrochloride]	10	–	–	–	pKi (mu opioid receptor; hydrochloride): 6.57; MOUSE PQW ED50 ([1]; s.c., hydrochloride): 1.7 mg/kg
CN(C(=O)Cc1ccc(Cl)c(Cl)c1)C(c1ccccc1)C1CCCCN1CC1CC1 (stereo not shown) [Example 3]	47	6.02	> 81	–	pKi (kappa opioid receptor): 6.28
CC(C1CCCCN1C)N(C)C(=O)Cc1ccc(Cl)c(Cl)c1 (stereo not shown) [Example 4, benzeneacetamide,3,4-dichloro-N-methyl-N-[1-(1-methyl-2-piperidinyl)ethyl]-, hydrochloride]	> 81	4.54	67	–	pKi (kappa opioid receptor): 5.89
COc1cccc(C(C2CCCCN2C)N(C)C(=O)Cc2ccc(Cl)c(Cl)c2)c1 (stereo not shown) [Example 5, benzeneacetamide,3,4-dichloro-N-[1-(3-methoxyphenyl)-1-(1-methyl-2-piperidinyl)methyl]-N-methyl-, hydrochloride]	38	–	1.3	5.46	–
CN1CCCCC1C(c1cccc(O)c1)N(C)C(=O)Cc1ccc(Cl)c(Cl)c1 (stereo not shown) [Example 6, benzeneacetamide,3,4-dichloro-N-[1-(3-hydroxyphenyl)-1-(1-methyl-2-piperidinyl)methyl]-N-methyl-, hydrobromide]	> 81	–	18	6.36	–
COc1ccc(C(C2CCCCN2C)N(C)C(=O)Cc2ccc(Cl)c(Cl)c2)cc1 (stereo not shown) [Example 7, Benzeneacetamide, 3,4-dichloro-N-((1-(4-methoxyphenyl)-1-(1-methyl-2-piperidinylmethyl))-N-methyl-, hydrochloride]	> 81	5.25	> 81	–	pKi (kappa opioid receptor): 5.34
CN1CCCCC1C(c1ccc(O)cc1)N(C)C(=O)Cc1ccc(Cl)c(Cl)c1 (stereo not shown) [Example 8]	> 81	4.94	> 81	–	pKi (kappa opioid receptor): 5.59
CN1CCCCC1C(c1ccccc1)N(C)C(=O)Cc1ccc(Cl)c(Cl)c1 (stereo not shown) [Example 9]	–	–	–	6.49	MOUSE PQW ED50 ([1]; p.o.): 16. mg/kg; MOUSE PQW ED50 ([1]; s.c.): 0.72 mg/kg
CN1CCCCC1C(c1ccccc1)N(C)C(=O)Cc1c(F)c(F)c(F)c(F)c1F (stereo not shown) [Example 10]	47	–	16	5.49	–
CCN(C(=O)Cc1ccc(Cl)c(Cl)c1)C(c1ccccc1)C1CCCCN1C (stereo not shown) [Example 11]	38	–	–	6.18	MOUSE PQW ED50 ([1]; s.c.): 30.0 mg/kg
CCN(C(=O)Cc1ccc(Cl)c(Cl)c1)C(c1ccccc1)C1CCCCN1C (stereo not shown) [Example 12]	–	–	–	5.48	MOUSE PQW ED50 ([1]; p.o.): 24. mg/kg; MOUSE PQW ED50 ([1]; s.c.): 1.7 mg/kg
CN1CCCCC1C(c1ccccc1)N(C)C(=O)Cc1ccc(Cl)cc1Cl (stereo not shown) [Example 13]	24	–	8.1	6.20	–
CN1CCCCC1C(c1ccccc1)N(C)C(=O)COc1ccc(Cl)c(Cl)c1 (stereo not shown) [Example 14]	1.2	7.24	0.11	–	–
CN1CCCCC1C(Cc1ccccc1)N(C)C(=O)Cc1ccc(Cl)c(Cl)c1 (stereo not shown) [Example 47]	> 81	5.59	> 81	–	pKi (kappa opioid receptor): 5.40
CN1CCCC[C@H]1[C@H](c1ccccc1)N(C)C(=O)Cc1ccc(Cl)c(Cl)c1 [Example 106, (+)-[2S-(R*,R*)]-(3,4-dichlorophenyl)-N-methyl-N-[1-(1-methyl-2-piperidinyl)phenylmethyl]acetamide hydrochloride]	8.1	–	0.37	6.38	–
CN1CCCC[C@@H]1[C@@H](c1ccccc1)N(C)C(=O)Cc1ccc(Cl)c(Cl)c1 [Example 107]	30	–	13	6.60	–

Compound	ED50 ([1]; po) [mg/kg]	pKi (mu opioid receptor; [3])	ED50 ([1]; sc) [mg/kg]	pKi (mu opioid receptor)	other results
CN1CCCC[C@H]1[C@@H](c1ccccc1)N(C)C(=O)Cc1ccc(Cl)c(Cl)c1 [Example 109]	> 81	–	> 81	5.41	–
CN1CCCC[C@H]1[C@H](c1ccccc1)N(C)C(=O)COc1ccc(Cl)c(Cl)c1 [Example 110]	0.89	8.10	0.078	–	–
CN1CCCC[C@@H]1[C@@H](c1ccccc1)N(C)C(=O)COc1ccc(Cl)c(Cl)c1 [Example 111]	19	–	1.3	6.71	–
CN1CCCC[C@@H]1[C@H](c1ccccc1)N(C)C(=O)COc1ccc(Cl)c(Cl)c1 [Example 112]	> 81	–	12	5.34	–
CN1CCCC[C@H]1[C@@H](c1ccccc1)N(C)C(=O)COc1ccc(Cl)c(Cl)c1 [Example 113]	> 81	–	67	< 5.00	–
CN1CCCC[C@H]1[C@H](c1ccccc1)N(C)C(=O)Cc1cccc2occc12 [Example 114]	8.1	–	0.57	6.60	–
CN1CCCC[C@H]1[C@H](c1ccc(F)cc1)N(C)C(=O)Cc1ccc(Cl)c(Cl)c1 [Example 118]	19	–	1.7	5.97	–
COc1cccc([C@@H]([C@@H]2CCCCN2C)N(C)C(=O)Cc2ccc(Cl)c(Cl)c2)c1 [Example 120]	19	–	1.6	6.20	–
CN1CCCC[C@H]1[C@H](c1cccc(O)c1)N(C)C(=O)Cc1ccc(Cl)c(Cl)c1 [Example 122]	47	–	36	6.68	–
CN1CCCC[C@H]1[C@H](c1ccc(F)cc1)N(C)C(=O)COc1ccc(Cl)c(Cl)c1 [Example 136]	1.7	7.27	0.24	–	–
COc1cccc([C@@H]([C@@H]2CCCCN2C)N(C)C(=O)COc2ccc(Cl)c(Cl)c2)c1 [Example 140]	5.2	–	0.29	6.98	–
CN1CCCC[C@H]1[C@H](c1cccc(O)c1)N(C)C(=O)COc1ccc(Cl)c(Cl)c1 [Example 144]	16	7.57	4.2	–	–
CN(C(=O)Cc1ccc(Cl)c(Cl)c1)[C@@H](c1ccccc1)[C@@H]1CCCCN1CC1CC1 [Example 179]	10	6.22	> 81	–	pKi (kappa opioid receptor): 6.40
C=CCN1CCCC[C@H]1[C@H](c1ccccc1)N(C)C(=O)Cc1ccc(Cl)c(Cl)c1 [Example 180]	24	–	> 81	6.28	–
CN1CC[C@]23c4c5ccc(O)c4O[C@H]2[C@@H](O)C=C[C@H]3[C@H]1C5 [Morphine]	–	–	–	–	sedation in mice [2]: do not produce sedation
